Measured values as given in patent US9499493B2, “2,4-pyrimidinediamine compounds and their uses” (Rigel Pharmaceuticals, Inc., priority 2002, dated 2016).

Experiments:
[1] = tested on: cultured human mast cells (CHMC); test: CHMC low cell density ionomycin activation: tryptase assay; type: cell-based
[2] = tested on: cultured human mast cells (CHMC); test: CHMC high cell density IgE activation: TNFalpha; type: cell-based; conditions: anti-IgE activation; read-out: CHMC high density TNF-alpha
Method: (§1) Inhibition of degranulation was measured at both low and high cell density by quantifying the release of the granule specific factors tryptase, histamine and hexosaminidase. Inhibition of release and/or synthesis of lipid mediators was assessed by measuring the release of leukotriene LTC4 and inhibition of release and/or synthesis of cytokines was monitored by quantifying TNF-α, IL-6 and IL-13. Tryptase and hexosaminidase were quantified using fluorogenic substrates as described in their respective examples. […] The protocols of the various assays are provided below.
(§2) After sensitizing, cells are counted, pelleted (1000 rpm, 5-10 minutes), and resuspended at 1-2×10^6 cells/ml in MT buffer. Add 100 ul of cell suspension to each well and 100 ul of compound dilutions. The final vehicle concentration is 0.5% DMSO. Incubate at 37° C. (5% CO2) for 1 hour. After 1 hour of compound treatment, stimulate cells with 6× anti-IgE. Mix wells with the cells and allow plates to incubate at 37° C. (5% CO2) for one hour. After 1 hour incubation, pellet cells (10 minutes, 1000 RPM) and collect 200 ul per well of the supernatant, being careful not to disturb pellet. Place the supernatant plate on ice. During the 7-hour step (see next) perform tryptase assay on supernatant that had been diluted 1:500. Resuspend cell pellet in 240 ul of CM media containing 0.5% DMSO and corresponding concentration of compound. Incubate CHMC cells for 7 hours at 37° C. (5% CO2). After incubation, pellet cells (1000 RPM, 10 minutes) and collect 225 ul per well and place in −80° C. until ready to perform ELISAS. ELISAS are performed on appropriately diluted samples (determined empirically for each donor cell population so that the sample measurement falls within the standard curve) following the supplier's instructions.

[3] = tested on: cultured human mast cells (CHMC); test: CHMC high cell density IgE activation: tryptase; type: cell-based; conditions: anti-IgE activation
Method: as §2

[4] = tested on: cultured human mast cells (CHMC); test: CHMC high cell density IgE activation: LTC4; type: cell-based; conditions: anti-IgE activation
Method: as §1, §2

[5] = tested on: cultured human mast cells (CHMC); test: CHMC high cell density IgE activation: hexos (hexosaminidase) release; type: cell-based; conditions: anti-IgE activation
Method: as §1, §2

[6] = tested on: cultured human mast cells (CHMC); test: CHMC low cell density IgE activation: tryptase assay; type: cell-based; conditions: anti-IgE
In short: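 Cells pelleted, taken up in warm MT, plated at 1000-1500/well, held 1 hr 37° C. Anti-IgE added, 30 min 37° C. Plates spun; supernatant mixed with tryptase substrate, 30 min RT.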

[7] = tested on: cultured human mast cells (CHMC); test: CHMC high cell density IgE activation: IL-13; type: cell-based; conditions: anti-IgE activation
Method: as §1, §2

[8] = tested on: cultured human mast cells (CHMC); test: CHMC low cell density IgE activation: LTC4 assay; type: cell-based; conditions: anti-IgE
Method: Pellet CHMC cells (980 rpm, 10 min) and resuspend in pre-warmed MT. Add 65 ul of cells to each 96-well plate. Depending on the degranulation activity for each particular CHMC donor, load 1000-1500 cells/well. Mix four times followed by a 1 hr incubation at 37° C. […] Stimulate cells by adding 25 ul of 6× anti-IgE solution to the appropriate plates. Add 25 ul MT to un-stimulated control wells. Mix twice following addition of the anti-IgE. Incubate at 37° C. for 30 minutes. […] Spin plates at 1000 rpm for 10 min to pellet cells. Transfer 25 ul of supernatant to a 96-well black bottom plate and add 100 ul of freshly diluted tryptase substrate solution to each well. Incubate plates at room temperature for 30 min.
Leukotriene C4 (LTC4) is also quantified using an ELISA kit on appropriately diluted supernatant samples (determined empirically for each donor cell population so that the sample measurement falls within the standard curve) following the supplier's instructions.

[9] = tested on: cultured human mast cells (CHMC); test: CHMC high cell density IgE activation: histamine; type: cell-based; conditions: anti-IgE activation
Method: as §1, §2

Jurkat cells = test: Jurkat toxicity, Cell Titer Glo assay; type: cell-based; conditions: 18 hours incubation
Method: Seed 50 μl cells (1×10^6/ml) into each well containing 50 μl compound. […] Shake plates for 1 minute to mix cells and compound. Incubate plates at 37° C. […] Next day, harvest 50 μl cells from each well, add to 50 μl Cell Titer Glo reagent ([…]). Shake plates for 1 minute. Read on luminometer.

[10] = tested on: bone marrow derived mast cells (BMMC); test: BMMC high cell density IgE activation: histamine; type: cell-based, mouse; conditions: anti-IgE, second part of TABLE 1
Method: as §1
(§3) After sensitizing, cells are counted, pelleted (1000 rpm, 5-10 minutes), and resuspended at 1-3×10^6 cells/ml in MT buffer. Add 100 ul of cell suspension to each well and 100 ul of compound dilutions. The final vehicle concentration is 0.5% DMSO. Incubate at 37° C. (5% CO2) for 1 hour. After 1 hour of compound treatment, stimulate cells with 6× stimulus (60 ng/ml DNP-BSA). Mix wells with the cells and allow plates to incubate at 37° C. (5% CO2) for one hour. After 1 hour incubation, pellet cells (10 minutes, 1000 RPM) and collect 200 ul per well of the supernatant, being careful not to disturb pellet, and transfer to a clean tube or 96-well plate. Place the supernatant plate on ice. During the 4-5 hour step (see next) perform the hexosiminidase assay. Resuspend cell pellet in 240 ul WEI-conditioned media containing 0.5% DMSO and corresponding concentration of compound. Incubate BMMC cells for 4-5 hours at 37° C. (5% CO2). After incubation, pellet cells (1000 RPM, 10 minutes) and collect 225 ul per well and place in −80° C. until ready to perform ELISAS. ELISAS are performed on appropriately diluted samples (determined empirically for each donor cell population so that the sample measurement falls within the standard curve) following the supplier's instructions.

[11] = tested on: bone marrow derived mast cells (BMMC); test: BMMC high cell density IgE activation: IL-6; type: cell-based, mouse; conditions: anti-IgE, second part of TABLE 1
Method: as §1, §3

[12] = tested on: bone marrow derived mast cells (BMMC); test: BMMC high cell density IgE activation: LTC4; type: cell-based, mouse; conditions: anti-IgE, second part of TABLE 1
Method: as §1, §3

[13] = tested on: bone marrow derived mast cells (BMMC); test: BMMC high cell density IgE activation: hexosaminidase; type: cell-based, mouse; conditions: anti-IgE, second part of TABLE 1, read-out: BMMC anti-IgE hexos. IC50
Method: as §3
Hexosaminidase assay: In a solid black 96-well assay plate, add 50 uL hexosaminidase substrate (4-methylumbelliferyl-N-acetyl-(3-D-glucosaminide; 2 mM) to each well. Add 50 uL of BMMC cell supernatant (see above) to the hexoseaminidase substrate, place at 37° C. for 30 minutes and read the plate at 5, 10, 15, and 30 minutes on a spectrophotometer.

[14] = tested on: bone marrow derived mast cells (BMMC); test: BMMC high cell density IgE activation: TNFalpha; type: cell-based, mouse; conditions: anti-IgE, second part of TABLE 1, read-out: BMMC anti-IgE TNF-alpha IC50
Method: as §1, §3

[15] = tested on: FcγRI-mediated degranulation; test: FcγRI receptor-mediated degranulation (activation with anti-human IgG Fab fragment); type: cell-based; conditions: cells not primed with IgE, activated with rabbit anti-human IgG Fab fragment
[16] = Pharmacokinetics / oral bioavailability in rats; type: in vivo; conditions: rats
Method: Over 50 2,4-pyrimidinediamine compounds of the invention were tested for oral bioavailability. For the study, compounds were dissolved in various vehicles (e.g. PEG 400 solution and CMC suspension) for intravenous and oral dosing in the rats. Following administration of the drug, plasma samples were obtained and extracted. The plasma concentrations of the compounds were determined by high performance liquid chromatography/tandem mass spectrometry (LC/MS/MS) methods. Pharmacokinetic analyses were performed based on the plasma concentration data. The pharmacokinetic parameters of interest include Clearance (CL), Volume of distribution at steady-state (Vss), terminal half-life (t1/2), and oral bioavailability (% F).

Structure (SMILES)	IC50 [1] [nM]	IC50 [2] [nM]	IC50 [3] [nM]	IC50 [4] [nM]	IC50 [5] [nM]	IC50 [6] [nM]	IC50 [7] [nM]	IC50 [9] [nM]	oral bioavailabilities and half-lives (in words) [16]	further results
O=C(c1cc2cc(Nc3ncc(F)c(Nc4cccc(O)c4)n3)ccc2o1)N1CCOCC1 [R926488, 5-Fluoro-N4-(3-hydroxyphenyl)-N2-[2-(N-morpholino)carbonylbenzofuran-5-yl]-2,4-pyrimidinediamine]	> 10000	2440	623	201	521	331	1010	792	–	IC50 [8]: 752 nM
O=C(COc1cccc(Nc2ncc(F)c(Nc3ccc4c(c3)OCCO4)n2)c1)NCCO [R926505, N4-(3,4-Ethylenedioxyphenyl)-5-fluoro-N2-[3-(2-hydroxyethylamino)carbonylmethyleneoxyphenyl]-2,4-pyrimidinediamine]	> 10000	–	–	–	–	145	–	–	–	IC50 (Jurkat cells): 4200 nM; IC50 [10]: < 220 nM; IC50 [11]: < 220 nM; IC50 [12]: < 220 nM; IC50 [13]: < 220 nM; IC50 [14]: < 220 nM
CNCCOc1cccc(Nc2ncc(F)c(Nc3ccc4c(c3)OCCO4)n2)c1 [R926510, N4-(3,4-Ethylenedioxyphenyl)-5-fluoro-N2-[3-[2-(N-methylamino)ethyleneoxy]phenyl]-2,4-pyrimidinediamine]	> 10000	–	1120	417	921	440	686	1670	–	IC50 (Jurkat cells): 2770 nM
Oc1cccc(Nc2nc(Nc3ccc(OCCN4CCOCC4)cc3)ncc2F)c1 [R926699, 5-Fluoro-N4-(3-hydroxyphenyl)-N2-[4-[2-(N-morpholino)ethyleneoxy]phenyl]-2,4-pyrimidinediamine]	> 10000	< 1100	< 1100	< 1100	< 1100	760	1290	1440	–	–
COc1cc(Nc2ncc(F)c(Nc3cccc(O)c3)n2)cc(OC)c1 [R926780, N2-(3.5-Dimethoxyphenyl)-5-fluoro-N4-(3-hydroxyphenyl)-2,4-pyrimidinediamine]	> 10000	–	–	–	–	–	–	–	–	IC50 (Jurkat cells): > 5000 nM; IC50 [10]: < 220 nM; IC50 [11]: < 220 nM; IC50 [12]: 461 nM; IC50 [13]: < 220 nM; IC50 [14]: < 220 nM
COc1cc(Nc2ncc(F)c(Nc3ccc4c(c3)NC(=O)C(C)(C)O4)n2)cc(OC)c1 [R927050]	–	–	–	–	–	–	–	–	good	FcγRI-mediated degranulation (in words) [15]: inhibit FcγRI-mediated degranulation
Cn1ncc2cc(Nc3ncc(F)c(Nc4ccc5c(c4)OCCO5)n3)ccc21 [R935193, N4-(3,4-Ethylenedioxyphenyl)-5-fluoro-N2-(1-methyl-indazoline-5-yl)-2,4-pyrimidinediamine]	> 10000	–	–	–	–	136	–	–	good	IC50 [10]: 48 nM; IC50 [11]: 37 nM; IC50 [13]: 80 nM
Fc1cnc(Nc2ccc3cn[nH]c3c2)nc1Nc1ccc(Cl)c(Cl)c1 [R935372, N4-(3,4-Dichlorophenyl)-5-fluoro-N2-(indazoline-6-yl)-2,4-pyrimidinediamine]	> 10000	–	–	–	–	60	–	–	good	FcγRI-mediated degranulation (in words) [15]: inhibit FcγRI-mediated degranulation
OCCCn1ncc2cc(Nc3ncc(F)c(Nc4ccc(Cl)c(Cl)c4)n3)ccc21 [R935391]	–	–	–	–	–	–	–	–	good	–
CC1(C)Oc2ccc(Nc3ncc(F)c(Nc4ccc5c(c4)NC(=O)C(C)(C)O5)n3)cc2NC1=O [R940350, N2,N4-[(2,2-Dimethyl-4H-benzo[1,4]oxazin-3-one)-6-yl]-5-fluoro-2,4-pyrimidinediamine]	4000	–	–	–	–	–	–	–	good	FcγRI-mediated degranulation (in words) [15]: inhibit FcγRI-mediated degranulation
N#CCOc1ccc(Nc2ncc(F)c(Nc3ccc(OCC#N)cc3)n2)cc1 [R945032, N2,N4-Bis[4-(cyanomethyleneoxy)phenyl]-5-fluoro-2,4-pyrimidinediamine]	> 10000	1080	458	92.9	357	370	291	439	–	–
N#CCOc1ccc(Nc2nc(Nc3cccc(O)c3)ncc2F)cc1 [R945071, N4-[4-(Cyanomethyleneoxy)phenyl]-5-fluoro-N2-(3-hydroxyphenyl)-2,4-pyrimidinediamine]	–	< 1100	< 1100	< 1100	< 1100	–	< 1100	< 1100	–	–
Cc1cc(Nc2nc(Nc3cccc(OCC(=O)N4CCNCC4)c3)ncc2F)cc(C)c1O [R945140, N4-(3,5-Dimethyl-4-hydroxyphenyl)-5-fluoro-N2-[3-(N-piperazino)carbonylmethyleneoxyphenyl]-2,4-pyrimidinediamine]	> 10000	1710	1110	–	994	573	> 10000	1550	–	–
